Counter-ions that a name gives are not always drawn. Like-named read-outs stand apart in the source and are kept apart here.

EC50 and IC50 data for 19 compounds are collected here from patent publication US9809598B2 (Merck Patent GmbH, priority 2014, dated 2017).

One assay relates to Tankyrases. As to conditions: read-out: EC50 [M] TNKS cellular assay; DLD1 cells, 24 hours, Axin2 increase.
The target in a further assay is T1, TNKS2 (Homo sapiens, UniProt Q9H2K2).
T1 construct: GST-tagged Tnks-2 (873-1166 aa, prepared in-house); made in house
T1 sequence (Q9H2K2 873-1166): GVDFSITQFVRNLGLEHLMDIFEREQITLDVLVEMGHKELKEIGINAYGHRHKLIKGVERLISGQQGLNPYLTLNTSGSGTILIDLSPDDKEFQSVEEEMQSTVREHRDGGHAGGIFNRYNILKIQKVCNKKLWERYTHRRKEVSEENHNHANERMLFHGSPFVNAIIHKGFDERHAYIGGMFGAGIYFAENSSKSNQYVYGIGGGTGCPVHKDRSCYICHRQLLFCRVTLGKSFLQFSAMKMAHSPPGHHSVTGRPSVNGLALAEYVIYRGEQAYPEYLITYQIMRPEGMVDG
Description: TNKS2 activity ELISA (autoparsylation assay). Format: biochemical. Here is the method: (§1) Description of the TNKS1 and TNKS2 ELISA Assay
(§2) Biochemical Activity Testing of TNKS 1 and 2: Activity ELISA (Autoparsylation Assay)
(§3) For analysis of autoparsylation activity of TNKS 1 and 2 an activity ELISA iss performed: In the first step GST tagged TNKS is captured on a Glutathione coated plate. Then the activity assay with biotinylated NAD is performed in the absence/presence of the compounds. During the enzymatic reaction GST tagged TNKS transfers biotinylated ADP-ribose to itself from biotinylated NAD as co-substrate. For the detection streptavidin-HRP conjugate is added that binds to the biotinylated TNKS and is thereby captured to the plates. The amount of biotinylated resp. autoparsylated TNKS is detected with a luminescence substrate for HRP. The level of the luminescence signal correlats directly with the amount of autoparsylated TNKS and therefore with activity of TNKS.
(§4) The activity ELISA is performed in 384 well Glutathione coated microtiter plates (Express capture Glutathione coated plate, Biocat, Heidelberg, Germany). The plates are pre-equilibrated with PBS. […] The plates are washed 3 times with PBS-Tween-20. The wells are blocked by incubation at room temperature for 20 minutes with 50 μl blocking buffer (PBS, 0.05% Tween-20, 0.5% BSA). Afterwards the plates are washed 3 times with PBS-Tween-20. […] The reaction is stopped by 3 times washing with PBS-Tween-20. For the detection 50 μl of 20 ng/μl Streptavidin, HRP conjugate (MoBiTec, Göttingen, Germany) in PBS/0.05% Tween-20/0.01% BSA are added and the plates are incubated for 30 minutes at room temperature. After three times washing with PBS-Tween-20 50 μl of SuperSignal ELISA Femto Maximum sensitivity substrate solution (ThermoFisherScientific (Pierce), Bonn, Germany) are added. Following a 1 minute incubation at room temperature luminescence signals are measured with an Envision multimode reader (Perkin Elmer LAS Germany GmbH) at 700 nm. The full value used is the inhibitor-free reaction. […] The inhibitory values (IC50) are determined using either the program Symyx Assay Explorer® or Condosseo® from GeneData.

Another assay has as its target T2, PARP-1 (Homo sapiens, UniProt P09874).
T2 construct: purchased Enzo Life Sciences GmbH, Lörrach, Germany
Description: PARP-1 autoparsylation assay (HTRF). Format: biochemical. As to conditions: His-tagged Parp-1, autoparsylation HTRF. An excerpt: Description of the PARP1 Assay
Biochemical Activity Testing of PARP-1: Autoparsylation Assay
The autoparsylation assay is run in two steps: the enzymatic reaction in which His-tagged Parp-1 transfers biotinylated ADP-ribose/ADP-ribose to itself from biotinylated NAD/NAD as co-substrate and the detection reaction where a time resolved FRET between cryptate labelled anti-His antibody bound to the His tag of the enzyme and Xlent® labelled-streptavidin bound the biotin-parsylation residue is analysed. The autoparsylation activity is detectable directly via the increase in HTRF signal.
The autoparsylation assay is performed as 384-well HTRF® (Cisbio, Codolet, France) assay format in Greiner low volume nb 384-well microtiter plates. […] The ratio of the emission signals is determined. The full value used is the inhibitor-free reaction. The pharmacological zero value used is Olaparib (LClabs, Woburn, US) in a final concentration of 1 μM. The inhibitory values (IC50) are determined using either the program Symyx Assay Explorer® or Condosseo® from GeneData.

Another assay addresses T3, TNKS1 (Homo sapiens, UniProt O95271).
T3 construct: GST-tagged Tnks-1 (1023-1327 aa, prepared in-house); made in house
Description: TNKS1 activity ELISA (autoparsylation assay). Format: biochemical. The conditions noted are these: GST-tagged Tnks-1 (1023-1327 aa). Here is the method:
as §1, §2, §3, §4

[1] abbreviates: GST-tagged Tnks-2 (873-1166 aa), read-out: IC50 [M] TNKS2 ELISA.

T3 sequence (O95271 1023-1327): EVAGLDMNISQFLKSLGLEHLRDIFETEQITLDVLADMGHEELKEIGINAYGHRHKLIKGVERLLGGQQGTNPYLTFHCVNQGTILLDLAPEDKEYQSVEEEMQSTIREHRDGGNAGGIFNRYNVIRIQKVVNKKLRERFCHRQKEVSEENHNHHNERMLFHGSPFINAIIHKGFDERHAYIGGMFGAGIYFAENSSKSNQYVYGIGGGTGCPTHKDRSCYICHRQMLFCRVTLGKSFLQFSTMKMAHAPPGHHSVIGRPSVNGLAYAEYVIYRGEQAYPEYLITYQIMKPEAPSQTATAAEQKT
T2 sequence (P09874 whole entry): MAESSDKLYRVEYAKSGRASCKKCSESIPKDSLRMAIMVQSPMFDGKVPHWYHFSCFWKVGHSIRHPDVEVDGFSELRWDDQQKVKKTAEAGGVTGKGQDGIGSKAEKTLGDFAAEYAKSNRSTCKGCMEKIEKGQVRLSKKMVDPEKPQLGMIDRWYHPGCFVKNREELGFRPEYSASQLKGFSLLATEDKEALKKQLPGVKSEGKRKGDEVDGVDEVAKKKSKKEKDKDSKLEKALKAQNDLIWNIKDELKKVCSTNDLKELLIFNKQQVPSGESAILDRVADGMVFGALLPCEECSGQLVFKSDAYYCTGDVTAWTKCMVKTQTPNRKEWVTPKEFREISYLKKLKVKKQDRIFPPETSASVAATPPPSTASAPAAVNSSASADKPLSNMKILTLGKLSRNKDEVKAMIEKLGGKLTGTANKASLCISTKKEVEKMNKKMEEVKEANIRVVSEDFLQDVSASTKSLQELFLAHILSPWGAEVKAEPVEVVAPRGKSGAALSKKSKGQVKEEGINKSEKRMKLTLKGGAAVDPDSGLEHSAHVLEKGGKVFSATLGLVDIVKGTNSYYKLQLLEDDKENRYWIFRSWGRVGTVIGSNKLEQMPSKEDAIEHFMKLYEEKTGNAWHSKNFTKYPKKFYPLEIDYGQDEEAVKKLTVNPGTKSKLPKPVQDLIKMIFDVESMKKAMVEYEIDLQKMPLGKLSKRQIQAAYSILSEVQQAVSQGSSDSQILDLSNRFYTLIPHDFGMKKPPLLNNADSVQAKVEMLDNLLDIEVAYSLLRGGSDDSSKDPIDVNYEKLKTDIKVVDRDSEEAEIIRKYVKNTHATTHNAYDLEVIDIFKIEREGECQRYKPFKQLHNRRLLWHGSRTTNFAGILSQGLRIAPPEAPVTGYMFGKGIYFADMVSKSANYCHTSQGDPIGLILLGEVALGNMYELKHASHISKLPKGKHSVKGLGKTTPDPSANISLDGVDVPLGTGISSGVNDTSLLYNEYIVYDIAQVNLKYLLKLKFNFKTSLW

For `Cc1csc2c(=O)[nH]c(CCCC(=O)N3CCC(c4cnc(N)c(-c5ncccn5)c4)CC3)nc12` [Compound C128, 2-{4-[4-(6-Amino-5-pyrimidin-2-yl-3-pyridyl)-1-piperidyl]-4-oxo-butyl}-7-methyl-3H-thieno[3,2-d]pyrimidin-4-one], in the assay on Tankyrases, the EC50 amounted to 3.3e-09 M. In addition, the IC50 on TNKS2 (setting [1]) was 7.9e-10 M; at PARP-1, 230 nM; on TNKS1, 0.11 nM.

For `CC(C)n1cc(C(=O)C2CCN(C(=O)CCCc3cn4c(F)ccc4c(=O)[nH]3)CC2)cn1` [Compound C212, 6-Fluoro-3-{4-[4-(1-isopropyl-1H-pyrazole-4-carbonyl)-piperidin-1-yl]-4-oxo-butyl}-2H-pyrrolo[1,2-a]pyrazin-1-one], the IC50 on TNKS2 (setting [1]) worked out at 1.3e-09 M; against PARP-1 it was 5600 nM; against TNKS1, 0.39 nM.

Consider `Cc1ccc2c(=O)[nH]c(CCCC(=O)N3CCC(C(=O)c4cnn(C(C)C)c4)CC3)cn12` [Compound C211, 3-{4-[4-(1-Isopropyl-1H-pyrazole-4-carbonyl)-piperidin-1-yl]-4-oxo-butyl}-6-methyl-2H-pyrrolo[1,2-a]pyrazin-1-one], for which the EC50 in the assay on Tankyrases was 1.4e-08 M. In addition, the IC50 at TNKS2 was 2.8e-10 M; at PARP-1, 14000 nM.

As for `COc1ccc(C(=O)C2CCN(C(=O)CCCc3cn4ccnc4c(=O)[nH]3)CC2)cc1` [Compound C13, 6-{4-[4-(4-Methoxy-benzoyl)-piperidin-1-yl]-4-oxo-butyl}-7H-imidazo[1,2-a]-pyrazin-8-one], the EC50 with Tankyrases came to 4.1e-07 M. The IC50 at TNKS2 (setting [1]) amounted to 7.4e-10 M; at TNKS1, 1.2 nM.

Take `COc1ccc(C(=O)C2CCN(C(=O)CCCc3cn4cncc4c(=O)[nH]3)CC2)cc1` [Compound C10, 6-{4-[4-(4-Methoxy-benzoyl)-piperidin-1-yl]-4-oxo-butyl}-7H-imidazo[1,5-a]-pyrazin-8-one]: the EC50 in the assay with Tankyrases came out at 6.7e-09 M. Moreover, the IC50 was determined as 1.3e-10 M on TNKS2 (setting [1]) and 0.32 nM against TNKS1.

Take `COc1ccc(C(=O)C2CCN(C(=O)CCCc3nc(C(C)C)cc(=O)[nH]3)CC2)cc1` [Compound C254, 6-Isopropyl-2-{4-[4-(4-methoxy-benzoyl)-piperidin-1-yl]-4-oxo-butyl}-3H-pyrimidin-4-one trifluoroacetate]: in the assay with Tankyrases, the EC50 is 2.6e-07 M. The IC50 on TNKS2 (setting [1]) was determined as 1.5e-08 M; at TNKS1, 28 nM.

For the compound `Cn1cc(C(=O)C2CCN(C(=O)CCCc3nn4cccc4c(=O)[nH]3)CC2)cn1` [Compound C146, 2-{4-[4-(1-Methyl-1H-pyrazole-4-carbonyl)-piperidin-1-yl]-4-oxo-butyl}-3H-pyrrolo[2,1-f][1,2,4]triazin-4-one], in the assay on Tankyrases, the EC50 is 8.7e-08 M. The IC50 was 1.4e-09 M at TNKS2 (setting [1]) and 2.2 nM against TNKS1.

As for `Cn1cc(C(=O)C2CCN(C(=O)CCCc3cn4cncc4c(=O)[nH]3)CC2)cn1` [Compound C207, 6-{4-[4-(1-Methylpyrazole-4-carbonyl)-1-piperidyl]-4-oxo-butyl}-7H-imidazo[1,5-a]pyrazin-8-one], the EC50 in the assay on Tankyrases came to 1.1e-06 M. Also, the figures for the IC50 on TNKS2 (setting [1]) and on TNKS1 were 2.8e-09 M and 7.1 nM, respectively.

Regarding `CC(C)n1cc(C(=O)C2CCN(C(=O)CCCc3nc4c(cnn4C)c(=O)[nH]3)CC2)cn1` [Compound C218, 6-{4-[4-(1-Isopropyl-1H-pyrazole-4-carbonyl)-piperidin-1-yl]-4-oxo-butyl}-1-methyl-1,5-dihydro-pyrazolo[3,4-d]pyrimidin-4-one], the EC50 in the assay on Tankyrases came to 1.4e-07 M. Besides, the figures for the IC50 at TNKS2 (setting [1]) and on TNKS1 were 8.5e-10 M and 2 nM, respectively.

For the compound `CC(C)(O)c1ccc(C(=O)C2CCN(C(=O)CCCc3nc4c(c(=O)[nH]3)COCC4)CC2)cc1` [Compound C200, 2-(4-{4-[4-(1-Hydroxy-1-methyl-ethyl)-benzoyl]-piperidin-1-yl}-4-oxo-butyl)-3,5,7,8-tetrahydro-pyrano[4,3-d]pyrimidin-4-one], the EC50 in the assay on Tankyrases turned out to be 3.7e-06 M. Moreover, the IC50 at TNKS2 (setting [1]) came out at 2.2e-08 M; against TNKS1 it was 170 nM.

As to `O=C(CCCc1nc2c(c(=O)[nH]1)COCC2)N1CCC(c2nnc(-c3ccccc3)o2)CC1` [Compound C196, 2-{4-Oxo-4-[4-(5-phenyl-[1,3,4]oxadiazol-2-yl)-piperidin-1-yl]-butyl}-3,5,7,8-tetrahydro-pyrano[4,3-d]pyrimidin-4-one], the EC50 with Tankyrases is 2e-06 M. For the same compound, the IC50 was 5.7e-08 M against TNKS2 and 6500 nM against PARP-1.

`CCn1cc(C(=O)C2CCN(C(=O)CCCc3nc4c(c(=O)[nH]3)COCC4)CC2)cn1` [Compound C228, 2-{4-[4-(1-Ethyl-1H-pyrazole-4-carbonyl)-piperidin-1-yl]-4-oxo-butyl}-3,5,7,8-tetrahydro-pyrano[4,3-d]pyrimidin-4-one]: in the assay on Tankyrases, the EC50 is 2.9e-06 M. Also, the IC50 at TNKS2 (setting [1]) came to 2.2e-09 M; against TNKS1, 14 nM.

For the compound `COc1ccc(C(=O)C2CCN(C(=O)CCCc3nc(C)c(C)c(=O)[nH]3)CC2)cn1` [Compound C241, 2-{4-[4-(6-Methoxy-pyridine-3-carbonyl)-piperidin-1-yl]-4-oxo-butyl}-5,6-dimethyl-3H-pyrimidin-4-one], in the assay with Tankyrases, the EC50 came to 3.5e-08 M. Also, the IC50 at TNKS2 (setting [1]) came out at 4.9e-09 M; at TNKS1 it was 11 nM.

For the compound `CC(C)c1cc(=O)[nH]c(CCCC(=O)N2CCC(C(=O)c3ccc(F)cc3)CC2)n1` [Compound C255, 2-{4-[4-(4-Fluorobenzoyl)-1-piperidyl]-4-oxo-butyl}-4-isopropyl-1H-pyrimidin-6-one trifluoroacetate], in the assay with Tankyrases, the EC50 is 2.7e-06 M. Further, the IC50 at TNKS2 (setting [1]) was determined as 4.9e-08 M; against TNKS1 it was 110 nM.

Turning to `COc1ccc(C(=O)C2CCN(C(=O)CCCc3nncc4ccccc34)CC2)cc1` [Compound C250, 1-[4-(4-Methoxy-benzoyl)-piperidin-1-yl]-4-phthalazin-1-yl-butan-1-one], the EC50 in the assay on Tankyrases turned out to be 4.6e-08 M. The IC50 at TNKS2 (setting [1]) was determined as 1.1e-09 M; against TNKS1, 2.8 nM.

For the compound `COc1ccc(C(=O)C2CCN(C(=O)CCCc3cn4c(C)cnc4c(=O)[nH]3)CC2)cc1` [Compound C32, 6-{4-[4-(4-Methoxybenzoyl)-1-piperidyl]-4-oxo-butyl}-3-methyl-7H-imidazo[1,2-a]pyrazin-8-one], the IC50 on TNKS2 (setting [1]) worked out at 1.4e-10 M; at PARP-1, 17000 nM; against TNKS1, 0.12 nM.

Take `COc1ccc(C(=O)C2CCN(C(=O)CCCc3cn4c(F)ccc4c(=O)[nH]3)CC2)cc1` [Compound C9, 6-Fluoro-3-{4-[4-(4-methoxy-benzoyl)-piperidin-1-yl]-4-oxo-butyl}-2H-pyrrolo[1,2-a]pyrazin-1-one]: in the assay on Tankyrases, the EC50 stood at 7.2e-10 M. The IC50 was determined as 1.3e-10 M at TNKS2 (setting [1]) and 0.2 nM against TNKS1.

For `CC(C)c1cc(=O)[nH]c(CCCC(=O)N2CCC(C(=O)c3cnn(C)c3)CC2)n1` [Compound C257, 4-Isopropyl-2-{4-[4-(1-methylpyrazole-4-carbonyl)-1-piperidyl]-4-oxo-butyl}-1H-pyrimidin-6-one trifluoroacetate], the EC50 in the assay on Tankyrases amounted to 9.3e-06 M. Besides, the IC50 turned out to be 5.8e-08 M at TNKS2 (setting [1]) and 110 nM on TNKS1.

As for `COc1ccc(C(=O)C2CCN(C(=O)CCCc3cn4cccc4c(=O)[nH]3)CC2)cc1` [Compound C2, 3-{4-[4-(4-Methoxy-benzoyl)-piperidin-1-yl]-4-oxo-butyl}-2H-pyrrolo[1,2-a]-pyrazin-1-one], in the assay with Tankyrases, the EC50 was found to be 5e-10 M. The IC50 stood at 1.4e-10 M at TNKS2 (setting [1]) and 0.24 nM on TNKS1.
